Measured values: ChEMBL document CHEMBL1240467, “Synthesis and antibacterial activities of 6-O-methylerythromycin A 9-O-(3-aryl-2-propenyl) oxime ketolide, 2,3-enol ether, and alkylide analogues” (2010)
In brackets after ≈: the same amount, converted by molar mass.

What was measured:
Format in all cases: functional
[1] = tested on: Staphylococcus aureus; assay: Antibacterial activity against erythromycin-susceptible Staphylococcus aureus ATCC 29213 by broth microdilution method
[2] = tested on: Streptococcus pneumoniae; assay: Antibacterial activity against erythromycin-susceptible Streptococcus pneumoniae ATCC 49619 by broth microdilution method
[3] = tested on: Staphylococcus aureus; assay: Antibacterial activity against erythromycin-resistant Staphylococcus aureus PU-32 expressing erm(A) gene by broth microdilution method
[4] = tested on: Streptococcus pneumoniae; assay: Antibacterial activity against erythromycin-resistant Streptococcus pneumoniae PU-09 expressing mef gene by broth microdilution method
[5] = tested on: Staphylococcus aureus; assay: Antibacterial activity against erythromycin-resistant Staphylococcus aureus PU-19 expressing erm(A) gene by broth microdilution method
[6] = tested on: Streptococcus pneumoniae; assay: Antibacterial activity against erythromycin-resistant Streptococcus pneumoniae PU-11 expressing erm and mef gene by broth microdilution method
[7] = tested on: Streptococcus pneumoniae; assay: Antibacterial activity against erythromycin-resistant Streptococcus pneumoniae PU-27 expressing erm gene by broth microdilution method

| Structure (SMILES) | MIC [1] | MIC [2] | MIC [3] | MIC [4] | MIC [5] | MIC [6] | MIC [7] |
| --- | --- | --- | --- | --- | --- | --- | --- |
| CC[C@H]1OC(=O)[C@H](C)C(O/C=C\Cc2cncc3ccccc23)[C@H](C)[C@@H](O[C@H]2O[C@H](C)C[C@H](N(C)C)[C@H]2O)[C@](C)(OC)C[C@@H](C)/C(=N\OC/C=C/c2cncc3ccccc23)[C@H](C)[C@@H](O)[C@]1(C)O (some centres not stated) | 128 µg/mL (≈ 136 µM) | 16 µg/mL (≈ 17 µM) |  |  |  |  |  |
| CC[C@H]1OC(=O)[C@H](C)C(=O)[C@H](C)[C@@H](O[C@H]2O[C@H](C)C[C@H](N(C)C)[C@H]2O)[C@](C)(OC)C[C@@H](C)/C(=N\OC/C=C/c2ccc(-n3ccnc3)cc2)[C@H](C)[C@@H]2OC(=O)O[C@]12C | 0.125 µg/mL (≈ 0.154 µM) | ≤ 0.016 µg/mL | 0.125 µg/mL (≈ 0.154 µM) | 0.125 µg/mL (≈ 0.154 µM) | 64 µg/mL (≈ 78.9 µM) | 32 µg/mL (≈ 39.5 µM) | 1 µg/mL (≈ 1.23 µM) |
| CC[C@H]1OC(=O)[C@H](C)C(=O)[C@H](C)[C@@H](O[C@H]2O[C@H](C)C[C@H](N(C)C)[C@H]2O)[C@](C)(OC)C[C@@H](C)/C(=N\OC/C=C/c2cnc3ccccc3c2)[C@H](C)[C@@H]2OC(=O)O[C@]12C | 0.032 µg/mL (≈ 0.0402 µM) | ≤ 0.016 µg/mL | 0.064 µg/mL (≈ 0.0804 µM) |  | 64 µg/mL (≈ 80.4 µM) | 32 µg/mL (≈ 40.2 µM) |  |
| CC[C@H]1OC(=O)[C@H](C)C(=O)[C@H](C)[C@@H](O[C@H]2O[C@H](C)C[C@H](N(C)C)[C@H]2O)[C@](C)(OC)C[C@@H](C)/C(=N\OC/C=C/c2ccc3ncccc3c2)[C@H](C)[C@@H]2OC(=O)O[C@]12C | 0.032 µg/mL (≈ 0.0402 µM) | ≤ 0.016 µg/mL | ≤ 0.016 µg/mL | 0.25 µg/mL (≈ 0.314 µM) | 64 µg/mL (≈ 80.4 µM) | 32 µg/mL (≈ 40.2 µM) | 1 µg/mL (≈ 1.26 µM) |
| CC[C@H]1OC(=O)[C@H](C)[C@@H](O[C@H]2C[C@@](C)(OC)[C@@H](O)[C@H](C)O2)[C@H](C)[C@@H](O[C@@H]2O[C@H](C)C[C@H](N(C)C)[C@H]2O)[C@](C)(OC)C[C@@H](C)C(=O)[C@H](C)[C@@H](O)[C@]1(C)O [CLARITHROMYCIN] | 0.125 µg/mL (≈ 0.167 µM) | 0.032 µg/mL (≈ 0.0428 µM) | 64 µg/mL (≈ 85.6 µM) | 4 µg/mL (≈ 5.35 µM) | > 256 µg/mL | 128 µg/mL (≈ 171 µM) | 16 µg/mL (≈ 21.4 µM) |
| CC[C@H]1OC(=O)[C@H](C)[C@@H](O[C@H]2C[C@@](C)(OC)[C@@H](O)[C@H](C)O2)[C@H](C)[C@@H](O[C@@H]2O[C@H](C)C[C@H](N(C)C)[C@H]2O)[C@](C)(O)C[C@@H](C)CN(C)[C@H](C)[C@@H](O)[C@]1(C)O [AZITHROMYCIN] | 0.5 µg/mL (≈ 0.668 µM) | 0.064 µg/mL (≈ 0.0854 µM) | 64 µg/mL (≈ 85.4 µM) |  | > 256 µg/mL | 128 µg/mL (≈ 171 µM) |  |
| CC[C@H]1OC(=O)[C@H](C)C(=O)[C@H](C)[C@@H](O[C@H]2O[C@H](C)C[C@H](N(C)C)[C@H]2O)[C@](C)(OC)C[C@@H](C)/C(=N\OC/C=C/c2cccnc2)[C@H](C)[C@@H]2OC(=O)O[C@]12C | 0.125 µg/mL (≈ 0.168 µM) | 0.032 µg/mL (≈ 0.0429 µM) | 0.125 µg/mL (≈ 0.168 µM) |  | 256 µg/mL (≈ 343 µM) | 128 µg/mL (≈ 172 µM) |  |
| C=CCOC1[C@@H](C)C(=O)O[C@H](CC)[C@@](C)(O)[C@H](O)[C@@H](C)/C(=N/OC/C=C/c2cncnc2)[C@H](C)C[C@@](C)(OC)[C@H](O[C@H]2O[C@H](C)C[C@H](N(C)C)[C@H]2O)[C@H]1C (some centres not stated) | 32 µg/mL (≈ 41.9 µM) | 8 µg/mL (≈ 10.5 µM) | 32 µg/mL (≈ 41.9 µM) | 16 µg/mL (≈ 21 µM) | > 256 µg/mL | 128 µg/mL (≈ 168 µM) | 128 µg/mL (≈ 168 µM) |
| CC[C@H]1OC(=O)[C@H](C)C(=O)[C@H](C)[C@@H](O[C@H]2O[C@H](C)C[C@H](N(C)C)[C@H]2O)[C@](C)(OC)C[C@@H](C)/C(=N\OC/C=C/c2cncnc2)[C@H](C)[C@@H]2OC(=O)O[C@]12C | 0.032 µg/mL (≈ 0.0428 µM) | ≤ 0.016 µg/mL | 0.032 µg/mL (≈ 0.0428 µM) | 0.25 µg/mL (≈ 0.335 µM) | 256 µg/mL (≈ 343 µM) | 128 µg/mL (≈ 171 µM) | 1 µg/mL (≈ 1.34 µM) |
| CC[C@H]1OC(=O)[C@H](C)C(=O)[C@H](C)[C@@H](O[C@H]2O[C@H](C)C[C@H](N(C)C)[C@H]2O)[C@](C)(OC)C[C@@H](C)/C(=N\OC/C=C/c2cncc3ccccc23)[C@H](C)[C@@H]2OC(=O)O[C@]12C | 0.064 µg/mL (≈ 0.0804 µM) | 0.032 µg/mL (≈ 0.0402 µM) | 0.5 µg/mL (≈ 0.628 µM) |  | 256 µg/mL (≈ 322 µM) | 64 µg/mL (≈ 80.4 µM) |  |
